Where “and” joins values, the source holds several entries; their conditions need not be identical. Equal entries are not always repeated. Toxic doses and inconclusive results are not listed.
Tested on: BDF1 mice, intracerebral L1210 leukemia, survival T/C
Test: NCI In Vivo Anticancer Drug Screen. Data for tumor model L1210 Leukemia (intracerebral) in B6D2F1 (BDF1) mice
Conditions: higher = longer survival
Summary of the method: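 Survival measured in treated and vehicle-control tumour-bearing mice; value = T/C.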

Compound: C[C@@H](CN1CC(=O)NC(=O)C1)N1CC(=O)NC(=O)C1
- T/C (endpoint: median survival time, dose: 8.0 mg/kg/injection, schedule: Q01DX009 (ip), vehicle: water): 112 % of control
- T/C (endpoint: median survival time, dose: 16.0 mg/kg/injection, schedule: Q01DX009 (ip), vehicle: water): 121 % of control and 123 % of control
- T/C (endpoint: median survival time, dose: 128.0 mg/kg/injection, schedule: Q01DX009 (ip), vehicle: water): 123 % of control
- T/C (endpoint: median survival time, dose: 256.0 mg/kg/injection, schedule: Q01DX009 (ip), vehicle: water): 111 % of control
- T/C (endpoint: median survival time, dose: 512.0 mg/kg/injection, schedule: Q01DX009 (ip), vehicle: water): 113 % of control

Compound: CN(N=O)C(=O)NCCCNC(=O)N(C)N=O
- T/C (endpoint: mean survival time, dose: 150.0 mg/kg/injection, schedule: Q01DX001 (ip), vehicle: carboxymethylcellulose (CMC)): 108 % of control
- T/C (endpoint: mean survival time, dose: 300.0 mg/kg/injection, schedule: Q01DX001 (ip), vehicle: carboxymethylcellulose (CMC)): 119 % of control

Compound: O=NN(CCCl)C(=O)Nc1cccc(Cl)c1
- T/C (endpoint: mean survival time, dose: 44.0 mg/kg/injection, schedule: Q01DX001 (ip), vehicle: carboxymethylcellulose (CMC)): 102 % of control
- T/C (endpoint: mean survival time, dose: 67.0 mg/kg/injection, schedule: Q01DX001 (ip), vehicle: carboxymethylcellulose (CMC)): 100 % of control
- T/C (endpoint: mean survival time, dose: 77.0 mg/kg/injection, schedule: Q01DX001 (ip), vehicle: carboxymethylcellulose (CMC)): 107 % of control
- T/C (endpoint: mean survival time, dose: 100.0 mg/kg/injection, schedule: Q01DX001 (ip), vehicle: carboxymethylcellulose (CMC)): 98 % of control
- T/C (endpoint: mean survival time, dose: 117.0 mg/kg/injection, schedule: Q01DX001 (ip), vehicle: carboxymethylcellulose (CMC)): 103 % of control
- T/C (endpoint: mean survival time, dose: 175.0 mg/kg/injection, schedule: Q01DX001 (ip), vehicle: carboxymethylcellulose (CMC)): 108 % of control
- T/C (endpoint: mean survival time, dose: 252.0 mg/kg/injection, schedule: Q01DX001 (ip), vehicle: carboxymethylcellulose (CMC)): 103 % of control

Compound: Nc1ncnc2c1ccn2C1OC(CO)C(O)C1O (stereo not drawn)
- T/C (endpoint: mean survival time, dose: 1.2 mg/kg/injection, schedule: Q01DX001 (ip), vehicle: carboxymethylcellulose (CMC)): 96 % of control
- T/C (endpoint: mean survival time, dose: 1.9 mg/kg/injection, schedule: Q01DX001 (ip), vehicle: carboxymethylcellulose (CMC)): 97 % of control
- T/C (endpoint: mean survival time, dose: 2.9 mg/kg/injection, schedule: Q01DX001 (ip), vehicle: carboxymethylcellulose (CMC)): 100 % of control

Compound: O=P1(N(CCCl)CCCl)NCCCO1 (stereo not drawn)
- T/C (endpoint: mean survival time, dose: 17.5 mg/kg/injection, schedule: Q01DX Z (ip), vehicle: saline): 116 % of control
- T/C (endpoint: mean survival time, dose: 22.0 mg/kg/injection, schedule: Q01DX015 (ip), vehicle: saline): 112 % of control
- T/C (endpoint: mean survival time, dose: 25.0 mg/kg/injection, schedule: Q01DX Z (ip), vehicle: saline): 121 % of control
- T/C (endpoint: mean survival time, dose: 28.0 mg/kg/injection, schedule: Q01DX001 (ip), vehicle: saline): 104 % of control and 118 % of control
- T/C (endpoint: mean survival time, dose: 33.5 mg/kg/injection, schedule: Q01DX015 (ip), vehicle: saline): 123 % of control
- T/C (endpoint: mean survival time, dose: 39.0 mg/kg/injection, schedule: Q01DX009 (sc), vehicle: saline): 151 % of control
- T/C (endpoint: mean survival time, dose: 50.0 mg/kg/injection, schedule: Q01DX001 (ip), vehicle: DMSO): 111 % of control and 119 % of control and 121 % of control
- T/C (endpoint: mean survival time, dose: 50.0 mg/kg/injection, schedule: Q01DX001 (ip), vehicle: Klucel (hydroxypropylcellulose) (HPC)): 119 % of control and 121 % of control
- T/C (endpoint: mean survival time, dose: 50.0 mg/kg/injection, schedule: Q01DX001 (ip), vehicle: water): 111 % of control
- T/C (endpoint: mean survival time, dose: 50.0 mg/kg/injection, schedule: Q08DX002 (ip), vehicle: saline): 115 % of control
- T/C (endpoint: mean survival time, dose: 59.0 mg/kg/injection, schedule: Q01DX001 (ip), vehicle: saline): 117 % of control
- T/C (endpoint: mean survival time, dose: 65.0 mg/kg/injection, schedule: Q01DX009 (sc), vehicle: saline): 151 % of control
- T/C (endpoint: mean survival time, dose: 100.0 mg/kg/injection, schedule: Q01DX001 (ip), vehicle: water): 112 % of control
- T/C (endpoint: mean survival time, dose: 100.0 mg/kg/injection, schedule: Q01DX Z (ip), vehicle: saline): 110 % of control
- T/C (endpoint: mean survival time, dose: 100.0 mg/kg/injection, schedule: Q08DX002 (ip), vehicle: saline): 117 % of control
- T/C (endpoint: mean survival time, dose: 108.0 mg/kg/injection, schedule: Q01DX009 (sc), vehicle: saline): 110 % of control
- T/C (endpoint: mean survival time, dose: 118.0 mg/kg/injection, schedule: Q01DX001 (ip), vehicle: saline): 158 % of control
- T/C (endpoint: mean survival time, dose: 200.0 mg/kg/injection, schedule: Q01DX001 (ip), vehicle: DMSO): 110 % of control
- T/C (endpoint: mean survival time, dose: 200.0 mg/kg/injection, schedule: Q01DX001 (ip), vehicle: Klucel (hydroxypropylcellulose) (HPC)): 119 % of control
- T/C (endpoint: mean survival time, dose: 200.0 mg/kg/injection, schedule: Q01DX001 (ip), vehicle: water): 119 % of control
- T/C (endpoint: mean survival time, dose: 230.0 mg/kg/injection, schedule: Q01DX001 (ip), vehicle: saline): 157 % of control
- T/C (endpoint: mean survival time, dose: 234.0 mg/kg/injection, schedule: Q01DX001 (ip), vehicle: saline): 168 % of control
- T/C (endpoint: mean survival time, dose: 300.0 mg/kg/injection, schedule: Q01DX001 (ip), vehicle: saline): 114 % of control
- T/C (endpoint: mean survival time, dose: 400.0 mg/kg/injection, schedule: Q08DX002 (ip), vehicle: saline): 102 % of control
- T/C (endpoint: mean survival time, dose: 468.0 mg/kg/injection, schedule: Q01DX001 (ip), vehicle: saline): 152 % of control and 172 % of control
- T/C (endpoint: mean survival time, dose: 500.0 mg/kg/injection, schedule: Q01DX001 (ip), vehicle: saline): 106 % of control
- T/C (endpoint: mean survival time, dose: 560.0 mg/kg/injection, schedule: Q01DX001 (ip), vehicle: saline): 151 % of control
- T/C (endpoint: median survival time, dose: 1000.0 mg/kg/injection, schedule: Q01DX001 (oral), vehicle: saline): 119 % of control
- T/C (endpoint: median survival time, dose: 2000.0 mg/kg/injection, schedule: Q01DX001 (oral), vehicle: saline): 516 % of control
- T/C (endpoint: median survival time, dose: 8000.0 mg/kg/injection, schedule: Q01DX001 (oral), vehicle: saline): 45 % of control
- T/C (endpoint: median survival time, dose: 16000.0 mg/kg/injection, schedule: Q01DX001 (oral), vehicle: saline): 43 % of control

Compound: CN1CCN(CCCN2c3ccccc3Sc3ccc(C(F)(F)F)cc32)CC1
- T/C (endpoint: mean survival time, dose: 44.0 mg/kg/injection, schedule: Q04DX003 (ip), vehicle: water): 108 % of control

Compound: COc1cccnc1/C=N/NC(N)=S
- T/C (endpoint: median survival time, dose: 1.5 mg/kg/injection, schedule: Q01DX009 (ip), vehicle: saline with Tween-80): 101 % of control
- T/C (endpoint: median survival time, dose: 3.0 mg/kg/injection, schedule: Q01DX009 (ip), vehicle: saline with Tween-80): 103 % of control
- T/C (endpoint: median survival time, dose: 6.0 mg/kg/injection, schedule: Q01DX009 (ip), vehicle: saline with Tween-80): 110 % of control
- T/C (endpoint: median survival time, dose: 12.0 mg/kg/injection, schedule: Q01DX009 (ip), vehicle: saline with Tween-80): 153 % of control

Compound: CC(Cl)CNC(=O)N(CC(C)Cl)N=O (stereo not drawn)
- T/C (endpoint: mean survival time, dose: 250.0 mg/kg/injection, schedule: Q01DX001 (ip), vehicle: carboxymethylcellulose (CMC)): 107 % of control
- T/C (endpoint: mean survival time, dose: 500.0 mg/kg/injection, schedule: Q01DX001 (ip), vehicle: carboxymethylcellulose (CMC)): 112 % of control
- T/C (endpoint: mean survival time, dose: 1000.0 mg/kg/injection, schedule: Q01DX001 (ip), vehicle: carboxymethylcellulose (CMC)): 204 % of control

Compound: O=NN(CCBr)C(=O)NC1CCCCC1
- T/C (endpoint: mean survival time, dose: 137.0 mg/kg/injection, schedule: Q01DX001 (ip), vehicle: carboxymethylcellulose (CMC)): 108 % of control
- T/C (endpoint: mean survival time, dose: 345.0 mg/kg/injection, schedule: Q01DX001 (ip), vehicle: carboxymethylcellulose (CMC)): 224 % of control

Compound: CCCCCCCCSc1ncnc2c1ncn2CC
- T/C (endpoint: mean survival time, dose: 62.0 mg/kg/injection, schedule: Q01DX015 (ip), vehicle: carboxymethylcellulose (CMC)): 97 % of control
- T/C (endpoint: mean survival time, dose: 125.0 mg/kg/injection, schedule: Q01DX015 (ip), vehicle: carboxymethylcellulose (CMC)): 103 % of control
- T/C (endpoint: mean survival time, dose: 250.0 mg/kg/injection, schedule: Q01DX015 (ip), vehicle: carboxymethylcellulose (CMC)): 116 % of control
- T/C (endpoint: mean survival time, dose: 500.0 mg/kg/injection, schedule: Q01DX015 (ip), vehicle: carboxymethylcellulose (CMC)): 94 % of control

Compound: O=NN(CCCl)C(=O)N[C@H]1CCCC[C@H]1Cl
- T/C (endpoint: mean survival time, dose: 8.0 mg/kg/injection, schedule: Q01DX001 (ip), vehicle: carboxymethylcellulose (CMC)): 103 % of control
- T/C (endpoint: mean survival time, dose: 12.0 mg/kg/injection, schedule: Q01DX001 (ip), vehicle: carboxymethylcellulose (CMC)): 106 % of control and 110 % of control and 90 % of control
- T/C (endpoint: mean survival time, dose: 18.0 mg/kg/injection, schedule: Q01DX001 (ip), vehicle: carboxymethylcellulose (CMC)): 106 % of control
- T/C (endpoint: mean survival time, dose: 40.0 mg/kg/injection, schedule: Q01DX001 (ip), vehicle: carboxymethylcellulose (CMC)): 117 % of control
- T/C (endpoint: mean survival time, dose: 51.0 mg/kg/injection, schedule: Q01DX001 (ip), vehicle: carboxymethylcellulose (CMC)): 281 % of control and 306 % of control
- T/C (endpoint: mean survival time, dose: 54.0 mg/kg/injection, schedule: Q01DX001 (ip), vehicle: carboxymethylcellulose (CMC)): 198 % of control
- T/C (endpoint: mean survival time, dose: 62.0 mg/kg/injection, schedule: Q01DX001 (ip), vehicle: carboxymethylcellulose (CMC)): 159 % of control and 165 % of control and 176 % of control
- T/C (endpoint: mean survival time, dose: 72.0 mg/kg/injection, schedule: Q01DX001 (ip), vehicle: carboxymethylcellulose (CMC)): 251 % of control
- T/C (endpoint: mean survival time, dose: 90.0 mg/kg/injection, schedule: Q01DX001 (ip), vehicle: carboxymethylcellulose (CMC)): 209 % of control and 221 % of control and 270 % of control
- T/C (endpoint: mean survival time, dose: 101.0 mg/kg/injection, schedule: Q01DX001 (ip), vehicle: carboxymethylcellulose (CMC)): 413 % of control and 550 % of control
- T/C (endpoint: mean survival time, dose: 108.0 mg/kg/injection, schedule: Q01DX001 (ip), vehicle: carboxymethylcellulose (CMC)): 307 % of control
- T/C (endpoint: mean survival time, dose: 135.0 mg/kg/injection, schedule: Q01DX001 (ip), vehicle: carboxymethylcellulose (CMC)): 278 % of control and 305 % of control
- T/C (endpoint: mean survival time, dose: 203.0 mg/kg/injection, schedule: Q01DX001 (ip), vehicle: carboxymethylcellulose (CMC)): 119 % of control and 94 % of control

Compound: O=NN(CCF)C(=O)NC1CS(=O)(=O)CS(=O)(=O)C1
- T/C (endpoint: mean survival time, dose: 11.0 mg/kg/injection, schedule: Q01DX001 (ip), vehicle: other): 113 % of control
- T/C (endpoint: mean survival time, dose: 17.0 mg/kg/injection, schedule: Q01DX001 (ip), vehicle: other): 117 % of control
- T/C (endpoint: mean survival time, dose: 25.0 mg/kg/injection, schedule: Q01DX001 (ip), vehicle: other): 120 % of control

Source: PubChem BioAssay AID252 (DTP/NCI, 2004)
